What is called IC50 is the concentration at which inhibition is half-maximal. As usually defined, the Kd is the free concentration of one partner at which half of the binding sites on the other are occupied at equilibrium, for simple one-to-one binding. For orientation: Ki means a dissociation constant, usually derived from enzyme kinetics or from competition with a known ligand.

In experiment [1] the target is T1, EcPBP3 (Escherichia coli, UniProt P0AD68).
T1 construct: For assays, selections and SPR a construct with residues 60–588 which has the N-terminal domain, but not the transmembrane helix, was used; made in house
T1 sequence (P0AD68 60-588): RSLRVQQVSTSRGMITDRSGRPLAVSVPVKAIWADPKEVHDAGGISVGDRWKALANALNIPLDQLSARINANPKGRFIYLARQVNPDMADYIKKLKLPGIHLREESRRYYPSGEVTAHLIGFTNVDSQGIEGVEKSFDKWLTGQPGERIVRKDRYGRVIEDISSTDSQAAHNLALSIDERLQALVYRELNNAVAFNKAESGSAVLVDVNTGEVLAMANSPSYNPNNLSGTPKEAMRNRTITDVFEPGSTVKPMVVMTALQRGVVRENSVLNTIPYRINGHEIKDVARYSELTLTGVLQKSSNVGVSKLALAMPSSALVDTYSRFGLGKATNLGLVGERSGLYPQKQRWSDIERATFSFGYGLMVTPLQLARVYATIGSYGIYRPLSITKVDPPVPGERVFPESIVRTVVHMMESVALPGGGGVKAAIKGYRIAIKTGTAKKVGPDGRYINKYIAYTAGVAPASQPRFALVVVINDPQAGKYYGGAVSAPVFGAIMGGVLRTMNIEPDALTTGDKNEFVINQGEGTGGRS
The experiment in a line: Fluorescence polarisation competition assay with BOCILLIN-FL as tracer. The note with it: competition format; NB, non-binder (100 μM top concentration); read-out: IC50 (nM) by fluorescence polarisation with Bocillin FL as tracer, Geometric mean (Lower 95% CI of geo. Mean; Upper 95% CI of geo. Mean, n=number of values). In kind it is binding. The procedure: Binding of output peptides to EcPBP3 was evaluated using a fluorescence polarisation (FP) assay.
[…] 10 µL of protein (9.4 nM) was mixed with either 5 µL of peptide or 5 µL of buffer and then the assay was initiated by the addition of 10 µL of tracer (1 nM) (final volume 25 µL), in a black 384 low bind, low volume plate (Corning). The buffer was 10 mM HEPES (Sigma), 2% (v/v) glycerol (Sigma), 300 mM NaCl (Sigma), adjusted to pH 8. The plate was incubated for 1 h at 25 °C and then read in a PHERAstar FS (BMG) using with an “FP 485 520 520” optic module (excitation 485 nm, emission 520 nm). The gain was determined immediately prior to the read on a tracer-only well.
Dotmatics (Dotmatics) workflows performing the above calculations were used to process the data. Values quoted are the geometric means of at least 2 repeats.
For orientation: Polarisation of emitted light reports the rotation of a fluorescent probe.

In experiment [2] the target is T1, EcPBP3. Briefly: SPR binding assay on immobilised EcPBP3. The note with it: 37 °C, kinetic fitting; NB = no binding at 2500 nM (Tables S-4, S-5) or 5000 nM (Table 1); read-out: Kd (nM) by SPR (geomean). The method in brief:
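EcPBP3 amine-coupled to CM5 chip (1500-2500 RU); compounds injected at 37 °C in 10 mM HEPES pH 8.0, 200 mM NaCl, 0.05% Tween-20, 2% DMSO, 50 μL min^–1, 150 s contact, 2400 s dissociation. Double-referenced sensorgrams kinetically fitted for Kd; geometric mean of ≥2 biological replicates.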
A general note: Surface plasmon resonance follows binding to a sensor surface in real time, without labels.

Experiment [3] deals with T1, EcPBP3. Briefly: Fluorescence polarisation competition assay with fluorescent Bicycle tracer (tracer 1 / BCY12820). In kind it is binding. The note with it: protein 9.4 nM sets sensitivity limit, top concentration 5 µM, read-out: Ki (nM) by fluorescence polarisation with tracer 1 (BCY12820 as tracer), Geometric mean (Lower 95% CI; Upper 95% CI, n=number of values). The method in brief:
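Unlabelled peptide competes with fluorescent Bicycle tracer (1 nM, as added) for EcPBP3 (9.4 nM, as added) in 10 mM HEPES, 2% glycerol, 300 mM NaCl, pH 8.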

Each structure is given as a SMILES string. Where a SMILES comes first, the peptide text is derived from it.

Turning to `CC(C)C[C@@H]1NC(=O)[C@@H]2CSCCC(=O)N3CN(CN(C3)C(=O)CCSC[C@@H](C(=O)N[C@@H](C)C(N)=O)NC(=O)[C@H](Cc3c[nH]c4ccccc34)NC(=O)[C@H](CC(=O)O)NC(=O)[C@H](CC(N)=O)NC(=O)[C@H](CCCCN)NC(=O)[C@H](C)NC1=O)C(=O)CCSC[C@H](NC(=O)[C@H](C)N)C(=O)N[C@@H](C)C(=O)N[C@@H](C)C(=O)N[C@@H](CC(=O)O)C(=O)N[C@@H](CCCNC(=N)N)C(=O)N[C@@H](CC(C)C)C(=O)N[C@@H](Cc1c[nH]c3ccccc13)C(=O)N2` [Peptide 1] (HELM PEPTIDE1{A.C.A.A.D.R.L.W.C.L.A.K.N.D.W.C.A.[am]}|CHEM1{[O=C(CC[*:1])N1CN(C(=O)CC[*:2])CN(C(=O)CC[*:3])C1]}$PEPTIDE1,CHEM1,2:R3-1:R1|PEPTIDE1,CHEM1,9:R3-1:R2|PEPTIDE1,CHEM1,16:R3-1:R3$$$V2.0), on EcPBP3 [1], the IC50 was over 100000 nM. As for `CC(C)C[C@@H]1NC(=O)[C@H](Cc2c[nH]c3ccccc23)NC(=O)[C@H](CCC(=O)O)NC(=O)[C@@H]2CCCN2C(=O)[C@H]([C@@H](C)O)NC(=O)[C@H](CCCCN)NC(=O)[C@H](C)NC(=O)[C@@H](NC(=O)[C@H](C)N)CSCCC(=O)N2CN3CN(C2)C(=O)CCSC[C@@H](C(=O)N[C@@H](C)C(N)=O)NC(=O)[C@H](Cc2ccc(O)cc2)NC(=O)[C@H](C)NC(=O)[C@H](CC(N)=O)NC(=O)[C@H](Cc2ccccc2)NC(=O)CNC(=O)[C@H](CSCCC3=O)NC1=O` [Peptide 3] (HELM PEPTIDE1{A.C.A.K.T.P.E.W.L.C.G.F.N.A.Y.C.A.[am]}|CHEM1{[O=C(CC[*:1])N1CN(C(=O)CC[*:2])CN(C(=O)CC[*:3])C1]}$PEPTIDE1,CHEM1,2:R3-1:R1|PEPTIDE1,CHEM1,10:R3-1:R2|PEPTIDE1,CHEM1,16:R3-1:R3$$$V2.0), the half-inhibitory concentration (IC50) on EcPBP3 [1] was over 100000 nM.

Regarding `CSCC[C@@H]1NC(=O)[C@H](CC(C)C)NC(=O)[C@@H]2CSCCC(=O)N3CN(CN(C3)C(=O)CCSC[C@@H](C(=O)N[C@@H](C)C(N)=O)NC(=O)[C@H](CC(C)C)NC(=O)[C@H](CCC(=O)O)NC(=O)[C@@H]3CCCN3C(=O)[C@H](Cc3ccccc3)NC1=O)C(=O)CCSC[C@H](NC(=O)[C@H](C)N)C(=O)N[C@@H](CCCNC(=N)N)C(=O)NCC(=O)N[C@@H](CCC(=O)O)C(=O)N[C@@H](CO)C(=O)N[C@@H](CO)C(=O)N[C@@H](Cc1ccccc1)C(=O)N2` [Peptide 4] (HELM PEPTIDE1{A.C.R.G.E.S.S.F.C.L.M.F.P.E.L.C.A.[am]}|CHEM1{[O=C(CC[*:1])N1CN(C(=O)CC[*:2])CN(C(=O)CC[*:3])C1]}$PEPTIDE1,CHEM1,2:R3-1:R1|PEPTIDE1,CHEM1,9:R3-1:R2|PEPTIDE1,CHEM1,16:R3-1:R3$$$V2.0), the IC50 on EcPBP3 [1] was over 100000 nM. The same measure, in the same setting: the same measure for `CC[C@H](C)[C@@H]1NC(=O)[C@H]([C@@H](C)O)NC(=O)[C@H](CC(=O)O)NC(=O)[C@H](C)NC(=O)[C@@H](NC(=O)[C@H](C)N)CSCCC(=O)N2CN3CN(C2)C(=O)CCSC[C@@H](C(=O)N[C@@H](C)C(N)=O)NC(=O)[C@@H]2CCCN2C(=O)[C@H](Cc2ccc(O)cc2)NC(=O)[C@@H]2CCCN2C(=O)[C@H](C(C)C)NC(=O)[C@H](CSCCC3=O)NC(=O)[C@H]([C@@H](C)O)NC(=O)[C@H](CC(C)C)NC(=O)[C@H](CO)NC(=O)[C@H](Cc2ccc(O)cc2)NC1=O` [Peptide 6] (HELM PEPTIDE1{A.C.A.D.T.I.Y.S.L.T.C.V.P.Y.P.C.A.[am]}|CHEM1{[O=C(CC[*:1])N1CN(C(=O)CC[*:2])CN(C(=O)CC[*:3])C1]}$PEPTIDE1,CHEM1,2:R3-1:R1|PEPTIDE1,CHEM1,11:R3-1:R2|PEPTIDE1,CHEM1,16:R3-1:R3$$$V2.0): over 100000 nM; for `CC(C)C[C@@H]1NC(=O)[C@H](Cc2ccccc2)NC(=O)[C@H](CCC(=O)O)NC(=O)[C@H]([C@@H](C)O)NC(=O)[C@H](C)NC(=O)[C@@H](NC(=O)[C@H](C)N)CSCCC(=O)N2CN3CN(C2)C(=O)CCSC[C@H](NC(=O)[C@H](CC(C)C)NC(=O)[C@@H]2CCCN2C(=O)[C@H](Cc2ccc(O)cc2)NC1=O)C(=O)N[C@@H](Cc1c[nH]c2ccccc12)C(=O)N[C@@H](Cc1c[nH]c2ccccc12)C(=O)N[C@@H](CC(=O)O)C(=O)N[C@@H](CC(N)=O)C(=O)N[C@H](C(=O)N[C@@H](C)C(N)=O)CSCCC3=O` [Peptide 7] (HELM PEPTIDE1{A.C.A.T.E.F.L.Y.P.L.C.W.W.D.N.C.A.[am]}|CHEM1{[O=C(CC[*:1])N1CN(C(=O)CC[*:2])CN(C(=O)CC[*:3])C1]}$PEPTIDE1,CHEM1,2:R3-1:R1|PEPTIDE1,CHEM1,11:R3-1:R2|PEPTIDE1,CHEM1,16:R3-1:R3$$$V2.0): over 100000 nM. In the case of `CC(C)C[C@@H]1NC(=O)[C@@H]2CCCN2C(=O)[C@H](Cc2ccc(O)cc2)NC(=O)[C@H](C(C)C)NC(=O)[C@H](C(C)C)NC(=O)[C@H](CCC(=O)O)NC(=O)[C@@H](NC(=O)[C@H](C)N)CSCCC(=O)N2CN3CN(C2)C(=O)CCSC[C@H](NC1=O)C(=O)N[C@@H](Cc1ccc(O)cc1)C(=O)N[C@@H](Cc1c[nH]c2ccccc12)C(=O)N[C@@H](CO)C(=O)N[C@@H](CC(=O)O)C(=O)N[C@H](C(=O)N[C@@H](C)C(N)=O)CSCCC3=O` [Peptide 8] (HELM PEPTIDE1{A.C.E.V.V.Y.P.L.C.Y.W.S.D.C.A.[am]}|CHEM1{[O=C(CC[*:1])N1CN(C(=O)CC[*:2])CN(C(=O)CC[*:3])C1]}$PEPTIDE1,CHEM1,2:R3-1:R1|PEPTIDE1,CHEM1,9:R3-1:R2|PEPTIDE1,CHEM1,14:R3-1:R3$$$V2.0), the IC50 at EcPBP3 [1] was over 100000 nM.

Regarding `CSCC[C@@H]1NC(=O)[C@H](CC(N)=O)NC(=O)[C@H]([C@@H](C)O)NC(=O)[C@H](Cc2ccccc2)NC(=O)[C@H](CCC(=O)O)NC(=O)[C@H](CC(C)C)NC(=O)[C@@H]2CSCCC(=O)N3CN(CN(C3)C(=O)CCSC[C@@H](C(=O)N[C@@H](C)C(N)=O)NC1=O)C(=O)CCSC[C@H](NC(=O)[C@H](C)N)C(=O)N[C@@H](Cc1ccc(O)cc1)C(=O)N[C@@H](CCCCN)C(=O)N[C@@H](Cc1ccc(O)cc1)C(=O)N1CCC[C@H]1C(=O)NCC(=O)N[C@@H](CC(C)C)C(=O)N2` [Peptide 9] (HELM PEPTIDE1{A.C.Y.K.Y.P.G.L.C.L.E.F.T.N.M.C.A.[am]}|CHEM1{[O=C(CC[*:1])N1CN(C(=O)CC[*:2])CN(C(=O)CC[*:3])C1]}$PEPTIDE1,CHEM1,2:R3-1:R1|PEPTIDE1,CHEM1,9:R3-1:R2|PEPTIDE1,CHEM1,16:R3-1:R3$$$V2.0), the half-inhibitory concentration (IC50) at EcPBP3 [1] is over 100000 nM. Same read-out and setting: the same measure for `CC(C)C[C@@H]1NC(=O)[C@H](CCC(=O)O)NC(=O)[C@@H]2CCCN2C(=O)[C@@H]2CCCN2C(=O)[C@H](CC(C)C)NC(=O)CNC(=O)[C@@H]2CCCN2C(=O)[C@H](Cc2ccc(O)cc2)NC(=O)[C@@H](NC(=O)[C@H](C)N)CSCCC(=O)N2CN3CN(C2)C(=O)CCSC[C@H](NC1=O)C(=O)N[C@@H](CO)C(=O)N1CCC[C@H]1C(=O)N[C@@H](CO)C(=O)N[C@@H](Cc1ccccc1)C(=O)N[C@H](C(=O)N[C@@H](C)C(N)=O)CSCCC3=O` [Peptide 10] (HELM PEPTIDE1{A.C.Y.P.G.L.P.P.E.L.C.S.P.S.F.C.A.[am]}|CHEM1{[O=C(CC[*:1])N1CN(C(=O)CC[*:2])CN(C(=O)CC[*:3])C1]}$PEPTIDE1,CHEM1,2:R3-1:R1|PEPTIDE1,CHEM1,11:R3-1:R2|PEPTIDE1,CHEM1,16:R3-1:R3$$$V2.0): over 100000 nM. In the case of `CC(C)[C@@H]1NC(=O)[C@H](Cc2c[nH]c3ccccc23)NC(=O)[C@@H]2CCCN2C(=O)[C@@H]2CSCCC(=O)N3CN(CN(C3)C(=O)CCSC[C@@H](C(=O)N[C@@H](C)C(N)=O)NC(=O)[C@H](Cc3ccc(O)cc3)NC(=O)[C@H](CCC(=O)O)NC1=O)C(=O)CCSC[C@H](NC(=O)[C@H](C)N)C(=O)N[C@@H](CO)C(=O)N[C@@H](Cc1ccccc1)C(=O)N1CCC[C@H]1C(=O)N[C@@H](CCCCNC(=N)N)C(=O)N2` [Peptide 51] (HELM PEPTIDE1{A.C.S.F.P.[N=C(N)NCCCC[C@H](N[*:1])C(=O)[*:2]].C.P.W.V.E.Y.C.A.[am]}|CHEM1{[O=C(CC[*:1])N1CN(C(=O)CC[*:2])CN(C(=O)CC[*:3])C1]}$PEPTIDE1,CHEM1,2:R3-1:R1|PEPTIDE1,CHEM1,7:R3-1:R2|PEPTIDE1,CHEM1,13:R3-1:R3$$$V2.0), the dissociation constant (Kd) at EcPBP3 [2] amounted to 1.83 nM. In addition, the inhibitory constant (Ki) at EcPBP3 [3] is under 9 nM.
